Assays:
[1] = system: Com21 synthetic gut community; experiment: community biomass OD578 after 24 h drug treatment relative to untreated (fraction of untreated control); higher = more community growth; details: community: Com21 (Com20 + E. coli ED1a)
Experimental: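 Com21 (Com20 plus E. coli ED1a) was treated with drug for 24 h under anaerobic conditions in mGAM. Community OD578 was then measured and normalised to untreated Com21; mean of 3 biological replicates.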

[2] = system: Salmonella enterica typhimurium; experiment: IC25 growth inhibition; higher = less potent
Outline: (§1)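 Overnight monocultures grown in mGAM were moved into pre-reduced plates containing twofold drug dilutions, at a starting OD578 of 0.01 with 1% DMSO (or water). Plates were kept anaerobic and read hourly at OD578 in a plate reader, with at least three biological replicates. For each concentration, the median area under the growth curve was made monotonic, and IC25 was the lowest concentration whose median fell below a cutoff, reported as a tested interval. That cutoff was 0.75.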

Clostridium ramosum = experiment: IC25 growth inhibition; higher = less potent
Outline: as §1

Escherichia coli ED1a = experiment: IC25 growth inhibition; higher = less potent
Outline: as §1

Roseburia intestinalis = experiment: IC25 growth inhibition; higher = less potent
Outline: as §1

[3] = system: Yersinia pseudotuberculosis; experiment: IC25 growth inhibition; higher = less potent
Outline: as §1

Clostridium perfringens = experiment: IC25 growth inhibition; higher = less potent
Outline: as §1

[4] = system: Fusobacterium nucleatum subsp. Nucleatum; experiment: IC25 growth inhibition; higher = less potent
Outline: as §1

[5] = system: Clostridium saccharolyticum; experiment: IC25 growth inhibition; higher = less potent
Outline: as §1

Dorea formicigenerans = experiment: IC25 growth inhibition; higher = less potent
Outline: as §1

Bacteroides fragilis NT = experiment: IC25 growth inhibition; higher = less potent
Outline: as §1

Eubacterium rectale = experiment: IC25 growth inhibition; higher = less potent
Outline: as §1

Ruminococcus gnavus = experiment: IC25 growth inhibition; higher = less potent
Outline: as §1

[6] = system: Yersinia enterocolitica WA-314; experiment: IC25 growth inhibition; higher = less potent
Outline: as §1

Coprococcus comes = experiment: IC25 growth inhibition; higher = less potent
Outline: as §1

[7] = system: Bacteroides thetaiotaomicron; experiment: IC25 growth inhibition; higher = less potent
Outline: as §1

Bacteroides vulgatus = experiment: IC25 growth inhibition; higher = less potent
Outline: as §1

Bacteroides uniformis = experiment: IC25 growth inhibition; higher = less potent
Outline: as §1

[8] = system: Streptococcus parasanguinis; experiment: IC25 growth inhibition; higher = less potent
Outline: as §1

Collinsella aerofaciens = experiment: IC25 growth inhibition; higher = less potent
Outline: as §1

Shigella flexneri = experiment: IC25 growth inhibition; higher = less potent
Outline: as §1

Vibrio cholerae = experiment: IC25 growth inhibition; higher = less potent
Outline: as §1

Clostridium bolteae = experiment: IC25 growth inhibition; higher = less potent
Outline: as §1

Parabacteroides merdae = experiment: IC25 growth inhibition; higher = less potent
Outline: as §1

Streptococcus salivarius = experiment: IC25 growth inhibition; higher = less potent
Outline: as §1

[9] = drug pretreatment concentration 2.5 µM
[10] = drug pretreatment concentration 5 µM
[11] = drug pretreatment concentration 10 µM
[12] = drug pretreatment concentration 20 µM
[13] = drug pretreatment concentration 40 µM
[14] = drug pretreatment concentration 80 µM
[15] = drug pretreatment concentration 160 µM
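For IC25 growth inhibition in this document: lowest concentration where monotonic median growth AUC falls below 0.75 of drug-free control.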

| SMILES | community biomass OD578 [1, 9] | community biomass OD578 [1, 10] | community biomass OD578 [1, 11] | community biomass OD578 [1, 12] | community biomass OD578 [1, 13] | IC25 growth inhibition [2] [µM] | IC25 growth inhibition (Clostridium ramosum) [µM] | IC25 growth inhibition (Escherichia coli ED1a) [µM] | IC25 growth inhibition (Roseburia intestinalis) [µM] | IC25 growth inhibition [3] [µM] | IC25 growth inhibition (Clostridium perfringens) [µM] | IC25 growth inhibition [4] [µM] | IC25 growth inhibition [5] [µM] | IC25 growth inhibition (Dorea formicigenerans) [µM] | IC25 growth inhibition (Bacteroides fragilis NT) [µM] | IC25 growth inhibition (Eubacterium rectale) [µM] | IC25 growth inhibition (Ruminococcus gnavus) [µM] | IC25 growth inhibition [6] [µM] | IC25 growth inhibition (Coprococcus comes) [µM] | IC25 growth inhibition [7] [µM] | IC25 growth inhibition (Bacteroides vulgatus) [µM] | IC25 growth inhibition (Bacteroides uniformis) [µM] | IC25 growth inhibition [8] [µM] | IC25 growth inhibition (Collinsella aerofaciens) [µM] | IC25 growth inhibition (Shigella flexneri) [µM] | IC25 growth inhibition (Vibrio cholerae) [µM] | IC25 growth inhibition (Clostridium bolteae) [µM] | IC25 growth inhibition (Parabacteroides merdae) [µM] | IC25 growth inhibition (Streptococcus salivarius) [µM] | community biomass OD578 [1, 14] | community biomass OD578 [1, 15] |
| --- | --- | --- | --- | --- | --- | --- | --- | --- | --- | --- | --- | --- | --- | --- | --- | --- | --- | --- | --- | --- | --- | --- | --- | --- | --- | --- | --- | --- | --- | --- | --- |
| Clc1ccccc1C(c1ccccc1)(c1ccccc1)n1ccnc1 [Clotrimazole] | 0.969 | 0.989 | 1.03 | 1 | 0.976 | > 80 | ≤ 20 | > 40 | ≤ 10 | > 20 | > 80 | > 40 | ≤ 40 | ≤ 10 | ≤ 80 | ≤ 10 | ≤ 20 | > 80 | ≤ 5 | ≤ 80 | ≤ 80 | ≤ 80 | > 80 | ≤ 40 | > 80 | > 80 | ≤ 80 | ≤ 40 | > 80 |  |  |
| CC(=O)Oc1cccc2c1C(=O)c1c(OC(C)=O)cc(C(=O)O)cc1C2=O [Diacerein] |  |  | 0.936 | 0.913 | 0.728 | > 160 | ≤ 10 | > 160 | < 1.25 | ≤ 160 | ≤ 20 | ≤ 10 | ≤ 2.5 | < 1.25 | ≤ 2.5 | < 1.25 | ≤ 10 | > 160 | ≤ 20 | ≤ 2.5 | ≤ 2.5 | ≤ 5 | ≤ 10 | ≤ 2.5 | > 160 | ≤ 40 | ≤ 2.5 | < 1.25 | ≤ 10 | 0.337 | 0.284 |
| O=c1oc2ccccc2c(O)c1Cc1c(O)c2ccccc2oc1=O [Dicumarol] | 0.966 | 0.965 | 0.958 | 0.956 | 0.962 | > 80 | ≤ 40 | > 40 | > 80 | > 80 | ≤ 20 | ≤ 80 | ≤ 40 | > 80 | ≤ 20 | > 80 | ≤ 80 | > 80 | > 80 | ≤ 80 | ≤ 20 | ≤ 20 | ≤ 10 | > 80 | > 80 | ≤ 80 | > 80 | ≤ 80 | ≤ 20 |  |  |
| C/C=C(/C(=C/C)c1ccc(O)cc1)c1ccc(O)cc1 [Dienestrol] | 0.981 | 1.03 | 0.997 | 0.972 | 0.894 | > 40 | ≤ 40 | > 40 | ≤ 40 | > 40 | ≤ 20 | > 40 | ≤ 40 | ≤ 10 | ≤ 10 | ≤ 20 | ≤ 5 | > 40 | ≤ 10 | ≤ 20 | ≤ 40 | ≤ 40 | > 40 | > 40 | > 40 | ≤ 40 | > 40 | ≤ 40 | ≤ 40 |  |  |
| C[C@]12CCC3=C4CCC(=O)C=C4CC[C@H]3[C@@H]1CC[C@@]2(O)CC#N [Dienogest] |  | 0.994 | 0.987 | 1.01 | 0.995 | > 80 | > 80 | > 80 | > 80 | > 80 | > 80 | > 80 | > 80 | > 80 | > 80 | > 80 | > 80 | > 80 | > 80 | > 80 | > 80 | > 80 | > 80 | > 80 | > 80 | > 80 | > 80 | > 80 | > 80 | 0.975 |  |
| COc1cccc2c1C(=O)c1c(O)c3c(c(O)c1C2=O)C[C@@](O)(C(=O)CO)C[C@@H]3O[C@H]1C[C@H](N)[C@H](O)[C@H](C)O1 [Doxorubicin] |  |  | 0.978 | 0.949 | 0.918 | > 160 | ≤ 40 | > 160 | ≤ 40 | > 160 | ≤ 40 | > 160 | ≤ 20 | ≤ 20 | > 160 | ≤ 80 | ≤ 160 | > 160 | ≤ 40 | > 160 | > 160 | > 160 | ≤ 5 | ≤ 10 | > 160 | > 160 | ≤ 20 | > 160 | ≤ 10 | 0.881 | 0.907 |
| C[C@H]1c2cccc(O)c2C(=O)C2=C(O)[C@]3(O)C(=O)C(C(N)=O)=C(O)[C@@H](N(C)C)[C@@H]3[C@@H](O)[C@@H]21 [Doxycycline] |  |  | 0.062 | 0.06 | 0.064 | > 160 | < 1.25 | < 1.25 | < 1.25 | ≤ 40 | < 1.25 | < 1.25 | < 1.25 | < 1.25 | < 1.25 | < 1.25 | ≤ 40 | ≤ 40 | ≤ 40 | < 1.25 | < 1.25 | < 1.25 | < 1.25 | < 1.25 | ≤ 40 | < 1.25 | < 1.25 | ≤ 40 | ≤ 40 | 0.065 | 0.064 |
| CN[C@H](CC(C)C)C(=O)N[C@H]1C(=O)N[C@@H](CC(N)=O)C(=O)N[C@H]2C(=O)N[C@H]3C(=O)N[C@H](C(=O)N[C@H](C(=O)O)c4cc(O)cc(O)c4-c4cc3ccc4O)[C@H](O)c3ccc(c(Cl)c3)Oc3cc2cc(c3O[C@@H]2O[C@H](CO)[C@@H](O)[C@H](O)[C@H]2O[C@H]2C[C@](C)(N)[C@H](O)[C@H](C)O2)Oc2ccc(cc2Cl)[C@H]1O [Vancomycin] |  |  |  |  |  | > 160 | ≤ 2.5 | > 160 | < 1.25 | > 160 | < 1.25 | ≤ 160 | < 1.25 | < 1.25 | ≤ 10 | < 1.25 | < 1.25 | > 160 | < 1.25 | ≤ 40 | ≤ 2.5 | ≤ 20 | < 1.25 | < 1.25 | > 160 | > 160 | < 1.25 | ≤ 10 | < 1.25 |  |  |

— the supplement of paper PMC12350171
